Read-outs that look alike come from different tables or passages of the source.
Experiments:
human CB2 receptor = human CB2 receptor (Homo sapiens (Human), UniProt P34972); assay: CB2 receptor binding assay ([3H]CP-55,940 displacement, HEK-293 membranes)
Experimental: The compounds were evaluated in CB1R and CB2R binding assays using membranes from HEK-293 cells transfected with cDNAs encoding the human recombinant CB1R (Bmax=[…] protein) and human recombinant CB2R (Bmax=[…] protein) (Perkin-Elmer). […] Compounds were tested following the procedure described by the cell membrane manufacturer. […] CB2R binding assays were carried out with two different buffers: incubation buffer (Tris-HCl, 50 mM; MgCl2, 5 mM; CaCl2 1 mM; BSA, 0.2% at pH 7.4) and washing buffer (Tris-HCl, 50 mM; NaCl 500 mM; BSA, 0.1% at pH 7.4). […] Assays were performed in duplicate and incubated for […] at 37° C. […] Data are analyzed and IC50 is calculated using GraphPad Prism 5 and the model “log(inhibitor) vs. response—Variable slope”. The binding affinity of the compounds is Determined by Using the Cheng and Prusoff Equation Ki=IC50/(1+[radioligand]/Kd).

human recombinant CB1R = human recombinant CB1R (Homo sapiens (Human), UniProt P21554); assay: CB1 receptor binding assay ([3H]CP-55,940 displacement, HEK-293 membranes)
Experimental: The compounds were evaluated in CB1R and CB2R binding assays using membranes from HEK-293 cells transfected with cDNAs encoding the human recombinant CB1R (Bmax=[…] protein) and human recombinant CB2R (Bmax=[…] protein) (Perkin-Elmer). […]. Compounds were tested following the procedure described by the cell membrane manufacturer. […] CB2R binding assays were carried out with two different buffers: incubation buffer (Tris-HCl, 50 mM; MgCl2, 5 mM; CaCl2 1 mM; BSA, 0.2% at pH 7.4) and washing buffer (Tris-HCl, 50 mM; NaCl 500 mM; BSA, 0.1% at pH 7.4). […] Assays were performed in duplicate and incubated for […] at 37° C. After the incubation, the assay mixture is filtered through 96 GF/C filter plates (Perkin Elmer #6005174) using Perkin Elmer Filtermate Harvester, and then washed four times with ice-cold washing buffer. The filters are dried for 1 hour at 50° C. and [^3H] trapped on filter counted for radioactivity in Perkin Elmer Microscint 20 cocktail (#6013329) using Perkin Elmer MicroBeta2 Reader. […] Data are analyzed and IC50 is calculated using GraphPad Prism 5 and the model “log(inhibitor) vs. response—Variable slope”. The binding affinity of the compounds is Determined by Using the Cheng and Prusoff Equation Ki=IC50/(1+[radioligand]/Kd).

[1] = membranes of HEK-293 cells with human recombinant CB1R, [3H]CP-55,940, class symbols, read-out: CB1 IC50
[2] = membranes of HEK-293 cells with human recombinant CB2R, [3H]CP-55,940, read-out: CB2 IC50
[3] = membranes of HEK-293 cells with human recombinant CB1R, [3H]CP-55,940, read-out: CB1 IC50
[4] = membranes of HEK-293 cells with human recombinant CB2R, [3H]CP-55,940, class symbols, read-out: CB2 IC50

Sequence of human recombinant CB1R (P21554 whole entry): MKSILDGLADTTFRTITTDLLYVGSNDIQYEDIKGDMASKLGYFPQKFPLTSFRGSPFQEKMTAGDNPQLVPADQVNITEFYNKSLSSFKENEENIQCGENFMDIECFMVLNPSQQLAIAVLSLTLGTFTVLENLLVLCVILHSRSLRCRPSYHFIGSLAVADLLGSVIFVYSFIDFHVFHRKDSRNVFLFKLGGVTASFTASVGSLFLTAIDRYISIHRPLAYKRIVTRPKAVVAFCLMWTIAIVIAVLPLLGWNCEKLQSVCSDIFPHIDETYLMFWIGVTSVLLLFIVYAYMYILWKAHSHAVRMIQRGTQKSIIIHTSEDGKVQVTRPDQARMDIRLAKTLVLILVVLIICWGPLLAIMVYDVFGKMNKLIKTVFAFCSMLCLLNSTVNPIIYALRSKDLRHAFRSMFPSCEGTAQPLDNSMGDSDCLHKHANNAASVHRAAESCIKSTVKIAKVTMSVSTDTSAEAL
Sequence of human CB2 receptor (P34972 whole entry): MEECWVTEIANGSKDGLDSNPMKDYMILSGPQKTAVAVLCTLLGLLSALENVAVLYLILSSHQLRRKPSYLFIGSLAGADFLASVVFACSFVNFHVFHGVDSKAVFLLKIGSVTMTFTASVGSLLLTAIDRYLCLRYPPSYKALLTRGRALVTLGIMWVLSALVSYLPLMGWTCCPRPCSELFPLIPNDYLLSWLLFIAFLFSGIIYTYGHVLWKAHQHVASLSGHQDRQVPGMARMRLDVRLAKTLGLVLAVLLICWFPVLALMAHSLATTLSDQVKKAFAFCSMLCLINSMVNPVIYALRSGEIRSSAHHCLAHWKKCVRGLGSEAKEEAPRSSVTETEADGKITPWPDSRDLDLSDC

SMILES	IC50 (human recombinant CB1R; [1]) [nM]	IC50 (human CB2 receptor; [2]) [nM]	IC50 (human recombinant CB1R; [3]) [nM]	IC50 (human CB2 receptor; [4]) [nM]	also measured
Cc1c(C(=O)NC2CC3(CCC3)C2)c(=O)n(Cc2ccc(C#N)cc2)c2ncc(Br)cc12 [Compound 77, 6-bromo-1-(4-cyanobenzyl)-4-methyl-2-oxo-N-(spiro[3.3]heptan-2-yl)-1,2-dihydro-1,8-naphthyridine-3-carboxamide]	> 1000	–	–	–	IC50 (human CB2 receptor): 100 to 999 nM
Cc1c(C(=O)NC2CC3(CCC3)C2)c(=O)n(Cc2cccc(C#N)c2)c2ncc(Br)cc12 [Compound 78, 6-bromo-1-(3-cyanobenzyl)-4-methyl-2-oxo-N-(spiro[3.3]heptan-2-yl)-1,2-dihydro-1,8-naphthyridine-3-carboxamide]	> 1000	–	–	–	IC50 (human CB2 receptor): 100 to 999 nM
COc1ccc(-c2cnc3c(c2)c(C)c(C(=O)NC2CCC(C)CC2)c(=O)n3Cc2ccc(F)cc2)cc1 (stereo not drawn) [Compound 80, 1-(4-fluorobenzyl)-6-(4-methoxyphenyl)-4-methyl-N-(4-methylcyclohexyl)-2-oxo-1,2-dihydro-1,8-naphthyridine-3-carboxamide]	> 1000	–	–	–	IC50 (human CB2 receptor): 100 to 999 nM
O=C(NC1CC2(CCC2)C1)c1cc2cc(Br)cnc2n(Cc2ccc(F)cc2)c1=O [Compound 81, 6-bromo-1-(4-fluorobenzyl)-2-oxo-N-(spiro[3.3]heptan-2-yl)-1,2-dihydro-1,8-naphthyridine-3-carboxamide]	–	5	> 10000	–	–
CC(C)c1cnc2c(c1)cc(C(=O)NC13CC(C1)C3)c(=O)n2Cc1ccc(F)cc1 [Compound 84, N-(bicyclo[1.1.1]pentan-1-yl)-1-(4-fluorobenzyl)-6-isopropyl-2-oxo-1,2-dihydro-1,8-naphthyridine-3-carboxamide]	–	3.7	413	–	–
CC(C)c1cnc2c(c1)cc(C(=O)NC1(c3ccc(C#N)cc3)CC1)c(=O)n2Cc1ccc(F)cc1 [Compound 86, N-(1-(4-cyanophenyl)cyclopropyl)-1-(4-fluorobenzyl)-6-isopropyl-2-oxo-1,2-dihydro-1,8-naphthyridine-3-carboxamide]	> 1000	–	–	< 100	–
C[C@@H](NC(=O)c1cc2cc(Br)cnc2n(Cc2ccc(F)cc2)c1=O)c1ccc(F)cc1 [Compound 87, (R)-6-bromo-1-(4-fluorobenzyl)-N-(1-(4-fluorophenyl)ethyl)-2-oxo-1,2-dihydro-1,8-naphthyridine-3-carboxamide]	–	5	4580	–	–
C=C(C)c1cnc2c(c1)cc(C(=O)N[C@H](C)c1ccc(F)cc1)c(=O)n2Cc1ccc(F)cc1 [Compound 88, (R)-1-(4-fluorobenzyl)-N-(1-(4-fluorophenyl)ethyl)-2-oxo-6-(prop-1-en-2-yl)-1,2-dihydro-1,8-naphthyridine-3-carboxamide]	–	6.7	> 10000	–	–
C[C@H](NC(=O)c1cc2cc(Br)cnc2n(Cc2ccc(F)cc2)c1=O)c1ccc(F)cc1 [Compound 90, (S)-6-bromo-1-(4-fluorobenzyl)-N-(1-(4-fluorophenyl)ethyl)-2-oxo-1,2-dihydro-1,8-naphthyridine-3-carboxamide]	–	11	348	–	–
C[C@@H](NC(=O)c1cc2cc(Br)cnc2n(Cc2ccc(F)cc2)c1=O)c1ccc(C#N)cc1 [Compound 91, (R)-6-bromo-N-(1-(4-cyanophenyl)ethyl)-1-(4-fluorobenzyl)-2-oxo-1,2-dihydro-1,8-naphthyridine-3-carboxamide]	–	7	> 10000	–	–
O=C(NC1CC2(CCC2)C1)c1cc2cc(C3CC3)cnc2n(Cc2ccc(F)cc2)c1=O [Compound 93, 6-cyclopropyl-1-(4-fluorobenzyl)-2-oxo-N-(spiro[3.3]heptan-2-yl)-1,2-dihydro-1,8-naphthyridine-3-carboxamide]	–	3.6	> 10000	–	–
O=C(NC1CC2(CCC2)C1)c1cc2cc(Br)cnc2n(Cc2cccnc2)c1=O [Compound 96, 6-bromo-2-oxo-1-(pyridin-3-ylmethyl)-N-(spiro[3.3]heptan-2-yl)-1,2-dihydro-1,8-naphthyridine-3-carboxamide]	> 1000	–	–	< 100	–
O=C(NC1CC2(CCC2)C1)c1cc2cc(-c3ccc(F)cc3)cnc2n(Cc2cccnc2)c1=O [Compound 97, 6-(4-fluorophenyl)-2-oxo-1-(pyridin-3-ylmethyl)-N-(spiro[3.3]heptan-2-yl)-1,2-dihydro-1,8-naphthyridine-3-carboxamide]	> 1000	–	–	< 100	–
C[C@@H](NC(=O)c1cc2cc(Br)cnc2n(Cc2ccc(C#N)cc2)c1=O)c1ccc(F)cc1 [Compound 104, (R)-6-bromo-1-(4-cyanobenzyl)-N-(1-(4-fluorophenyl)ethyl)-2-oxo-1,2-dihydro-1,8-naphthyridine-3-carboxamide]	> 1000	–	–	< 100	–
O=C(NC1CC2(CCC2)C1)c1cc2cc(-c3ccc(F)cc3)cnc2n(Cc2ccccn2)c1=O [Compound 106, 6-(4-fluorophenyl)-2-oxo-1-(pyridin-2-ylmethyl)-N-(spiro[3.3]heptan-2-yl)-1,2-dihydro-1,8-naphthyridine-3-carboxamide]	> 1000	–	–	< 100	–
CC(C)c1cnc2c(c1)cc(C(=O)N[C@H](C)c1ccc(C#N)cc1)c(=O)n2Cc1ccc(F)cn1 [Compound 108, (R)—N-(1-(4-cyanophenyl)ethyl)-1-((5-fluoropyridin-2-yl)methyl)-6-isopropyl-2-oxo-1,2-dihydro-1,8-naphthyridine-3-carboxamide]	> 1000	–	–	–	IC50 (human CB2 receptor): 100 to 999 nM
C[C@H]1CC[C@@H](NC(=O)c2c(O)c3cc(-c4ccc(F)cc4)cnc3n(CCN3CCOCC3)c2=O)CC1 [Compound 109, 6-(4-fluorophenyl)-4-hydroxy-N-((1s, 4s)-4-methylcyclohexyl)-1-(2-morpholinoethyl)-2-oxo-1,2-dihydro-1,8-naphthyridine-3-carboxamide]	> 1000	–	–	< 100	–
CC12CC(NC(=O)c3c(O)c4cc(-c5ccc(F)cc5)cnc4n(CCN4CCOCC4)c3=O)(C1)C2 [Compound 110, 6-(4-fluorophenyl)-4-hydroxy-N-(3-methylbicyclo[1.1.1]pentan-1-yl)-1-(2-morpholinoethyl)-2-oxo-1,2-dihydro-1,8-naphthyridine-3-carboxamide]	–	–	–	–	IC50 (human CB2 receptor): 100 to 999 nM; IC50 (human recombinant CB1R): 100 to 999 nM
CC1(C)CC(NC(=O)c2c(O)c3cc(-c4ccc(F)cc4)cnc3n(CCN3CCOCC3)c2=O)C1 [Compound 111, N-(3,3-dimethylcyclobutyl)-6-(4-fluorophenyl)-4-hydroxy-1-(2-morpholinoethyl)-2-oxo-1,2-dihydro-1,8-naphthyridine-3-carboxamide]	–	–	–	< 100	IC50 (human recombinant CB1R): 100 to 999 nM
O=C(NC1CC2(CC2)C1)c1c(O)c2cc(-c3ccc(F)cc3)cnc2n(CCN2CCOCC2)c1=O [Compound 112, 6-(4-fluorophenyl)-4-hydroxy-1-(2-morpholinoethyl)-2-oxo-N-(spiro[2.3]hexan-5-yl)-1,2-dihydro-1,8-naphthyridine-3-carboxamide]	> 1000	–	–	< 100	–
C[C@H]1C[C@@H](NC(=O)c2c(O)c3cc(-c4ccc(F)cc4)cnc3n(CCN3CCOCC3)c2=O)C1 [Compound 113, 6-(4-fluorophenyl)-4-hydroxy-N-((1s, 3s)-3-methylcyclobutyl)-1-(2-morpholinoethyl)-2-oxo-1,2-dihydro-1,8-naphthyridine-3-carboxamide]	> 1000	–	–	> 1000	–
C[C@H]1C[C@H](NC(=O)c2c(O)c3cc(-c4ccc(F)cc4)cnc3n(CCN3CCOCC3)c2=O)C1 [Compound 114, 6-(4-fluorophenyl)-4-hydroxy-N-((1r, 3r)-3-methylcyclobutyl)-1-(2-morpholinoethyl)-2-oxo-1,2-dihydro-1,8-naphthyridine-3-carboxamide]	> 1000	–	–	–	IC50 (human CB2 receptor): 100 to 999 nM
O=C(NC12CCC(C1)C2)c1c(O)c2cc(-c3ccc(F)cc3)cnc2n(CCN2CCOCC2)c1=O [Compound 115, N-(bicyclo[2.1.1]hexan-1-yl)-6-(4-fluorophenyl)-4-hydroxy-1-(2-morpholinoethyl)-2-oxo-1,2-dihydro-1,8-naphthyridine-3-carboxamide]	–	29	552	–	–
O=C(NC12CCC(CC1)CC2)c1c(O)c2cc(-c3ccc(F)cc3)cnc2n(CCN2CCOCC2)c1=O [Compound 116, N-(bicyclo[2.2.2]octan-1-yl)-6-(4-fluorophenyl)-4-hydroxy-1-(2-morpholinoethyl)-2-oxo-1,2-dihydro-1,8-naphthyridine-3-carboxamide]	–	31	1480	–	–

Reference: patent US11564928B1, “Cannabinoid receptor type 2 (CB2) modulators and uses thereof” (Teon Therapeutics, Inc., priority 2020, dated 2023)
